Values of other authors as cited in patent US20140088035A1, “TREATING SCHIZOPHRENIA” (THE GENERAL HOSPITAL CORPORATION, priority 2010, published 2014).

System: schizophrenia patients
Conditions: vitamin supplementation regimens; Levine et al. 2006, Godfrey et al. 1990

## Nc1nc2ncc(CNc3ccc(C(=O)N[C@@H](CCC(=O)O)C(=O)O)cc3)nc2c(=O)[nH]1 [folate, pteroyl-L-glutamic acid]
  symptomatic improvement in schizophrenia patients: associated with symptomatic improvement
